Assay [1] concerns A549. Nature of the assay: Induction of cell cycle arrest in human A549 cells assessed as accumulation at Go/G1 phase at 0.5 uM incubated for 48 hrs by PI staining based flow cytometry analysis (reference value: 62.45). It is filed as functional. (In general: A flow cytometer gives signals particle by particle.)
The test system of assay [2] is A549. Kind of assay: Induction of apoptosis in human A549 cells assessed as rate of apoptotic cells at 0.5 to 1 uM incubated for 48 hrs by Annexin V-FITC/propidium iodide staining based flow cytometry analysis (reference value: 2.7 %). The class given is functional. Conditions: dose 0.5-1 µM.
The test system of assay [3] is A549. Kind of assay: Induction of apoptosis in human A549 cells assessed as late apoptotic cells at 0.5 uM incubated for 48 hrs by Annexin V-FITC/propidium iodide staining based flow cytometry analysis (reference value: 1.00%). It is filed as functional.
Assay [4] deals with A549. Kind of assay: Induction of cell cycle arrest in human A549 cells assessed as accumulation at G2/M phase at 0.5 uM incubated for 48 hrs by PI staining based flow cytometry analysis (reference value: 18.14). It is filed as functional.
For assay [5], the system named is A549. Nature of the assay: Induction of apoptosis in human A549 cells assessed as early apoptotic cells at 1 uM incubated for 48 hrs by Annexin V-FITC/propidium iodide staining based flow cytometry analysis (reference value: 1.46%). The class given is functional.
Assay [6] concerns A549. Kind of assay: Inhibition of mitochondrial respiration in human A549 cells assessed as reduction in respiratory control ratio by seahorse XFe24 flux analyzer. The class given is functional, cell-based. Conditions: dose 0.5-2 µM, DDE = dose-dependent effect.
The subject of assay [7] is A549. Nature of the assay: Inhibition of mitochondrial membrane potential in human A549 cells by JC-1 staining based confocal microscopy. The class given is functional, cell-based. To be noted: dose 1.0 µM, DDE = dose-dependent effect.
The test system of assay [8] is A549. Nature of the assay: Induction of cell cycle arrest in human A549 cells assessed as accumulation at G2/M phase at 10 uM incubated for 48 hrs by PI staining based flow cytometry analysis. It is filed as functional.
Assay [9] concerns A549. Nature of the assay: Inhibition of mitochondrial respiration in human A549 cells assessed as decrease in proton leak at 2 uM in presence of oligomycin/FCCP/antimycin A/rotenone measured upto 75 mins by seahorse XFe24 flux analyzer. It is filed as functional, cell-based.
For assay [10], the system named is A549. Kind of assay: Inhibition of mitochondrial respiration in human A549 cells assessed as decrease in spare capacity at 2 uM in presence of oligomycin/FCCP/antimycin A /rotenone measured upto 75 mins by seahorse XFe24 flux analyzer. It is filed as functional, cell-based.
The test system of assay [11] is A549. Kind of assay: Inhibition of mitochondrial respiration in human A549 cells assessed as decrease in maximal respiration at 2 uM in presence of oligomycin/FCCP/antimycin A /rotenone measured upto 75 mins by seahorse XFe24 flux analyzer. It is filed as functional, cell-based.
Assay [12] concerns A549. Nature of the assay: Induction of cell cycle arrest in human A549 cells assessed as increase in cyclin B1 expression upto 1 uM incubated for 48 hrs by Western blot analysis. It is filed as functional, cell-based. A general note: In western blotting, separated proteins are transferred to a membrane and probed.
Assay [13] concerns A549. Kind of assay: Induction of apoptosis in human A549 cells assessed as increase in PARP protein expression at 0.5 to 1 uM measured after 48 hrs by Western blot assay. To be noted: dose 0.5-1 µM. It is filed as functional, cell-based.
The subject of assay [14] is A549. Kind of assay: Induction of apoptosis in human A549 cells assessed as necrotic cells at 1 uM incubated for 48 hrs by Annexin V-FITC/propidium iodide staining based flow cytometry analysis (reference value: 0.30%). The class given is functional.

Activity calls are given as the source filed them. The rule behind the calls is not given here.

Take `O=C(c1ccc2c(c1)OCO2)c1cccc2c3ccccc3n(-c3ncccn3)c12`: the Activity in [1] is listed as 59.84%; in [2], 21.1%; in assay [3], 2.17%; in assay [4], 23.16%; in assay [5], 12.3%; in assay [14], 1.8%. Besides, the inhibition result in [6] and in assay [7] was “Dde” throughout. Further, the result in assay [8], in [12] and in assay [13] was Active. The inhibition entry in [9], in [10] and in [11] was “Active” in each case.

The values are drawn from ChEMBL document CHEMBL5154761, “Design, synthesis, and evaluation of 9-(pyrimidin-2-yl)-9H-carbazole derivatives disrupting mitochondrial homeostasis in human lung adenocarcinoma” (Eur J Med Chem, 2022).
